According to patent US20230390298A1, “METHOD AND COMPOSITIONS FOR USE IN PROVIDING MALE CONTRACEPTION” (Eppin Pharma, Inc., priority 2022, published 2023):
One block for each molecule: values may come before it.

Key:
recombinant human EPPIN = biological target: T1, recombinant human EPPIN (Homo sapiens, UniProt O95925); assay: Epitope ALPHA (AlphaScreen) assay, EPPIN / anti-EPPIN antibody binding; details: EPPIN on donor beads, anti-EPPIN antibody on acceptor beads
T1 construct: made in house; host or cells: E. coli strain OrigamiB-DE3-pLysS
T1 sequence (O95925 22-133): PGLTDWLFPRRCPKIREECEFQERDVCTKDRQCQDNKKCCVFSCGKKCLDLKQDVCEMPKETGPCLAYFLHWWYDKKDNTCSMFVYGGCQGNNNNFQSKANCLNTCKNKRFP
Description: Two assays for high throughput screening (HTS) of compounds have been established and validated. In one embodiment, these assays are based on an adaptation of the AlphaScreen™ assay developed by PerkinElmer (Waltham, MA). In the AlphaScreen™ (amplified luminescent proximity homogeneous assay) assay donor and acceptor beads (˜200 nm) are employed to hold interacting protein molecules. When the interacting protein molecules bind (for example EPPIN {on the donor bead} and anti-EPPIN {on the acceptor bead}), single state oxygen molecules diffuse from the donor bead to the acceptor bead (˜4 μsec) and fluorophores subsequently emit light at 520-620 nm. In the primary compound screen, histidine-tagged recombinant human EPPIN is attached to NTA-donor beads and anti-EPPIN (S21C; against the EPPIN C-terminal domain) is attached to protein A-acceptor beads. This epitope specific assay gives strong and stable binding between EPPIN and the antibody.
Briefly, recombinant histidine-tagged recombinant EPPIN was pre-incubated with Ni-NTA chelate donor beads (catalog number AS101, Perkin Elmer, Waltham MA) and anti-Eppin 007 or anti-Eppin Q20E antibody was pre-incubated with Protein A acceptor beads (catalog number 6760136, Perkin Elmer, Waltham MA) for 30 minutes. Equal volumes of donor and acceptor bead mixtures were pipetted into white opaque 384-well microplates (OptiPlate-384; PerkinElmer, Waltham, MA) in a final volume of 30 μL. Plates were covered with top seal and transferred to a Synergy HTS Multiplatform automated plate reader (Biotek, Winooski, VT). After shaking for 2 min, plates were read with an excitation 680/30 filter, an emission 570/100 filter and data acquired using Gen5 software (Biotek). Each set of samples was pipetted in 4 replicates. The final concentration of assay components was 58 nM EPPIN, 2 nM anti-Eppin 007 or Q20E antibody, 5 μg/ml donor beads and 10 μg/ml acceptor beads in 0.1M Tris pH=8, 0.1% bovine serum albumin and 0.01% Tween-20. Negative controls were performed under the same conditions in the absence of EPPIN or antibody and in the presence of beads only. The antibody 007 used in this assay binds the same epitope that binds the EP055 compound so the two entities compete for binding to EPPIN. Q20E binds the n-terminal part of EPPIN.
Non-specific interactions of compound with assay components were measured at the same time with the IgG detection kit ([…] biotinylated rabbit IgG) to generate the bead interaction: 10 μg/ml donor and acceptor beads. (catalog number 6760617C, Perkin Elmer).
A specific signal for each time point was calculated by subtracting the background signal (obtained in the absence of Eppin) from its respective total signal. EC50 values for the binding of EPPIN to specific compounds were calculated by non-linear regression curve fitting using the specific signal obtained after 16 h of incubation using GraphPad Prism version 6.00 for Windows (GraphPad Software, La Jolla California USA, www.graphpad.com).

human sperm motility = assay: live sperm computer-assisted sperm analysis (CASA) assay; assay type: cell-based; details: for inhibitory activity in the CASA sperm motility assay: human spermatozoa
Description: In another embodiment, a computer-assisted sperm analysis (CASA) can be used as a live cell compound screen for determining the effect of compounds on human sperm motility. Additionally, to facilitate the EC50 evaluation of compounds using different ejaculates, reducing inter-assay variation due to differences in sperm quality in different semen samples, an index of relative motility inhibition (RMI) was developed. This is calculated as: RMI=[% motility*VSL]; percentage of motile sperm (% motility) or the percentage of progressively motile sperm (% progressive motility, RPMI) multiplied by the straight-line velocity (VSL); the average velocity measured in a straight line from the beginning to the end of a track in μm/sec. Normalized RMI can be calculated by dividing the RMI of each experimental condition by its respective DMSO control.
The live-sperm Computer Assisted Sperm Analysis (CASA) Assays were done as follows.
Human semen samples were obtained from the Department of Obstetrics and Gynecology, University of North Carolina Memorial Hospital, Chapel Hill, NC. […] Semen samples were allowed to liquefy for 30 minutes and subjected to standard semen analysis to determine acceptability before freezing. All samples were stored in liquid nitrogen, and de-identified by the Department of Obstetrics and Gynecology, University of North Carolina Memorial Hospital, Chapel Hill, NC before further processing. A density gradient (SpermCare catalog number 2221 and 2222, InvitroCare Inc., Frederick MD) was used to prepare spermatozoa for further analysis. At least 3 independent experiments were done per assay, each using several pooled samples from a single donor. Briefly sperm were washed after the density gradient with EP buffer-0.4% human serum albumin and resuspended in the same buffer for compound treatments. Sperm were diluted to 5×10^6/mL in 12×75 mm glass tubes with the appropriate treatment and incubated at 37° C. in 5% CO2. For CASA analysis, sperm were loaded onto slides (CellVison 4 chamber (20 μM), catalog number CV-1020-4CV, Fertility Technology Resources, Murphy NC) and warmed to 37° C. before analysis. Videos of sperm motility were collected using a Nikon ECLIPSE TS2-FL inverted microscope with 10× eyepiece and a 10× negative phase contrast objective and a Basler high speed camera (1280×1024 px, 200 fps, USB 3, CMOS). AVI Videos were analyzed using OpenCASA software (version 2). Units for CASA parameters are as follows: VAP (average path velocity), VSL (straight line velocity), and VCL (curvilinear velocity)=μm/sec (microns/sec); ALH (lateral head amplitude)=μm; BCF (beat cross-frequency)=Hz. The relative mobility index (RMI) is a measure of the effect of compound on sperm and is calculated as the VSL x % normal motility and normalized to the appropriate DMSO control.

inhibitory activity in the epitope ALPHA assay (recombinant human EPPIN): inhibitory activity
Molecule: COC(=O)CCSc1nc(NNC(=O)OC)nc(Nc2ccc(NC(C)=O)c(O)c2)n1 [EP082, methyl 3-({4-[(4-acetamido-3-hydroxyphenyl)amino]-6-{[(methoxycarbonyl)amino]amino}-1,3,5-triazin-2-yl}sulfanyl)propanoate]
inhibitory activity in the CASA sperm motility assay (human sperm motility): inhibitory activity

inhibitory activity in the epitope ALPHA assay (recombinant human EPPIN): inhibitory activity
Molecule: COC(=O)NNc1nc(Nc2ccc(NC(C)=O)c(O)c2)nc(SCCC(C)=O)n1 [EP091, methyl 2-(4-((4-acetamido-3-hydroxyphenyl)amino)-6-((3-oxobutyl)thio)-1,3,5-triazin-2-yl) hydrazine-1-carboxylate]
inhibitory activity in the CASA sperm motility assay (human sperm motility): inhibitory activity

inhibitory activity in the epitope ALPHA assay (recombinant human EPPIN): inhibitory activity
Molecule: COC(=O)CCSc1cc(NNC(=O)OC)nc(Cc2ccc(NC(C)=O)c(O)c2)n1 [EP100, methyl 3-({2-[(4-acetamido-3-hydroxyphenyl)methyl]-6-{[(methoxycarbonyl)amino]amino}pyrimidin-4-yl}sulfanyl)propanoate]
inhibitory activity in the CASA sperm motility assay (human sperm motility): inhibitory activity

inhibitory activity in the epitope ALPHA assay (recombinant human EPPIN): inhibitory activity
Molecule: CO/N=C/c1ccc(Cc2cc(NNC(=O)OC)cc(SCCC(=O)O)n2)cc1O [EP104, 3-{[6-({3-hydroxy-4-[(1E)-(methoxyimino)methyl]phenyl}methyl)-4-{[(methoxycarbonyl)amino]amino}pyridin-2-yl]sulfanyl}propanoic acid]
inhibitory activity in the CASA sperm motility assay (human sperm motility): inhibitory activity

EC50 (human sperm motility; inhibiting sperm motility and impairing proper function, read-out: calculated EC50 value for inhibiting sperm motility): 8.8 µM
B1: SEMG1: semenogelin, seminal vesicle protein that binds EPPIN on sperm and inhibits progressive motility (protein, UniProt P04279 24-462, looked up)
Semenogelin-1: QKGGSKGRLPSEFSQFPHGQKGQHYSGQKGKQQTESKGSFSIQYTYHVDANDHDQSRKSQQYDLNALHKTTKSQRHLGGSQQLLHNKQEGRDHDKSKGHFHRVVIHHKGGKAHRGTQNPSQDQGNSPSGKGISSQYSNTEERLWVHGLSKEQTSVSGAQKGRKQGGSQSSYVLQTEELVANKQQRETKNSHQNKGHYQNVVEVREEHSSKVQTSLCPAHQDKLQHGSKDIFSTQDELLVYNKNQHQTKNLNQDQQHGRKANKISYQSSSTEERRLHYGENGVQKDVSQSSIYSQTEEKAQGKSQKQITIPSQEQEHSQKANKISYQSSSTEERRLHYGENGVQKDVSQRSIYSQTEKLVAGKSQIQAPNPKQEPWHGENAKGESGQSTNREQDLLSHEQKGRHQHGSHGGLDIVIIEQEDDSDRHLAQHLNNDRNPLFT

The next lines start with the molecule.

Molecule: COC(=O)NNc1nc(Nc2ccc(NC(C)=O)c(O)c2)nc(SCCC(=O)O)n1 [EP083, 3-((4-((4-acetamido-3-hydroxyphenyl)amino)-6-(2-(methoxycarbonyl)hydrazineyl)-1,3,5-triazin-2-yl)thio)propanoic acid]
inhibitory activity in the epitope ALPHA assay (recombinant human EPPIN): inhibitory activity
inhibitory activity in the CASA sperm motility assay (human sperm motility): inhibitory activity

Molecule: COC(=O)NNc1nc(Nc2ccc(NC(C)=O)c(O)c2)nc(SCCCC(=O)O)n1 [EP096, 4-((4-((4-acetamido-3-hydroxyphenyl)amino)-6-(2(methoxycarbonyl)hydrazineyl)-1,3,5-triazin-2-yl)thio)butanoic acid]
inhibitory activity in the epitope ALPHA assay (recombinant human EPPIN): inhibitory activity
inhibitory activity in the CASA sperm motility assay (human sperm motility): inhibitory activity

Molecule: COC(=O)CCCSc1nc(NNC(=O)OC)nc(Nc2ccc(NC(C)=O)c(O)c2)n1 [EP098, methyl 4-({4-[(4-acetamido-3-hydroxyphenyl)amino]-6-{[(methoxycarbonyl)amino]amino}-1,3,5-triazin-2-yl}sulfanyl)butanoate]
inhibitory activity in the epitope ALPHA assay (recombinant human EPPIN): inhibitory activity
inhibitory activity in the CASA sperm motility assay (human sperm motility): inhibitory activity

Molecule: COC(=O)CCSc1cc(NNC(=O)OC)cc(Cc2ccc(CC(C)=O)c(O)c2)n1 [EP101, methyl 3-[(6-{[3-hydroxy-4-(2-oxopropyl)phenyl]methyl}-4-{[(methoxycarbonyl)amino]amino}pyridin-2-yl)sulfanyl]propanoate]
inhibitory activity in the epitope ALPHA assay (recombinant human EPPIN): inhibitory activity
inhibitory activity in the CASA sperm motility assay (human sperm motility): inhibitory activity

Molecule: CO/N=C/c1ccc(Cc2nc(NNC(=O)OC)cc(SCCC(=O)OC)n2)cc1O [EP102, methyl 3-{[2-({3-hydroxy-4-[(1E)-(methoxyimino)methyl]phenyl}methyl)-6-{[(methoxycarbonyl)amino]amino}pyrimidin-4-yl]sulfanyl}propanoate]
inhibitory activity in the epitope ALPHA assay (recombinant human EPPIN): inhibitory activity
inhibitory activity in the CASA sperm motility assay (human sperm motility): inhibitory activity

Molecule: CO/N=C/c1ccc(Cc2cc(NNC(=O)OC)cc(SCCC(=O)OC)n2)cc1O [EP103, methyl 3-{[6-({3-hydroxy-4-[(1E)-(methoxyimino)methyl]phenyl}methyl)-4-{[(methoxycarbonyl)amino]amino}pyridin-2-yl]sulfanyl}propanoate]
inhibitory activity in the epitope ALPHA assay (recombinant human EPPIN): inhibitory activity
inhibitory activity in the CASA sperm motility assay (human sperm motility): inhibitory activity
